Assay results: ChEMBL document CHEMBL1130882, “C-alkylated spiro[benzofuran-3(2H),4'-1'-methyl-piperidine-7-ols] as potent opioids: a conformation-activity study” (Bioorg Med Chem Lett, 1998)

How the values were obtained:
[1] = target: Kappa-type opioid receptor (Cavia porcellus, UniProt P41144); assay: Binding affinity against Opioid receptor kappa 1 was determined in brain membrane preparations from male Hartley guinea-pigs; type: cell membranes
[2] = target: Mu-type opioid receptor (Cavia porcellus, UniProt P97266); assay: Binding affinity against mu opioid receptor was determined in brain membrane preparations from male Hartley guinea-pigs; type: cell membranes
Sequence of Mu-type opioid receptor (P97266 whole entry): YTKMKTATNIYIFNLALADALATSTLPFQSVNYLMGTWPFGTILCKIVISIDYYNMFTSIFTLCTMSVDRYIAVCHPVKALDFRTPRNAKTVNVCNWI

Sequence of Kappa-type opioid receptor (P41144 whole entry): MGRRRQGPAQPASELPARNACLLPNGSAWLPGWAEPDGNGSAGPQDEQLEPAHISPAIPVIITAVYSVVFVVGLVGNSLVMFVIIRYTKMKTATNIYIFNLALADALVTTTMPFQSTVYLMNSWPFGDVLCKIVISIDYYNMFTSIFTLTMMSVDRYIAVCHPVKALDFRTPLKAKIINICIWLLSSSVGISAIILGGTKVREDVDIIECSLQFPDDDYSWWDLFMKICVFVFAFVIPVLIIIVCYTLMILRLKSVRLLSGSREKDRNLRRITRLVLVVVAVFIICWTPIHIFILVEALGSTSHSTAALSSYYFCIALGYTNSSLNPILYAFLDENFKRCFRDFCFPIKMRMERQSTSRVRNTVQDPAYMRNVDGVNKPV

| Structure (SMILES) | Ki [1] [nM] | Ki [2] [nM] |
| --- | --- | --- |
| CC1CN(C)CCC12COc1c(O)cccc12 (racemic; form 1) | 177 | 54 |
| CC1CN(C)CCC12COc1c(O)cccc12 (racemic; form 2) | 505 | 1020 |
| CN1CCC2(CC1)COc1c(O)cccc12 | > 100000 | 1650 |
| CC1Oc2c(O)cccc2C12CCN(C)CC2 (racemic) | > 100000 | 124 |
| CCC1Oc2c(O)cccc2C12CCN(C)CC2 (racemic) | > 100000 | 102 |
| CCOC(=O)C1(c2ccccc2)CCN(C)CC1 [MEPERIDINE] | > 100000 |  |
